Experimental data reported in patent publication US6933304B2, “Heteroarylalkanoic acids as integrin receptor antagonists” (Pharmacia Corporation, priority 2000, dated 2005).
pIC50: −log10 of the molar value.

What was measured:
[1] = molecular target: T1, αVβ6 (HT-29 human colon carcinoma cells) (Homo sapiens, UniProt P06756+P18564); assay: HT-29 cell adhesion assay (adhesion to immobilized LAP); type: cell-based; conditions: selectivity ratio: IC50 αVβ6 (HT-29) over IC50 β3
T1 construct: endogenous in cells; host or cells: HT-29 human colon carcinoma cells
T1 sequence (P06756 31-889 limits assumed): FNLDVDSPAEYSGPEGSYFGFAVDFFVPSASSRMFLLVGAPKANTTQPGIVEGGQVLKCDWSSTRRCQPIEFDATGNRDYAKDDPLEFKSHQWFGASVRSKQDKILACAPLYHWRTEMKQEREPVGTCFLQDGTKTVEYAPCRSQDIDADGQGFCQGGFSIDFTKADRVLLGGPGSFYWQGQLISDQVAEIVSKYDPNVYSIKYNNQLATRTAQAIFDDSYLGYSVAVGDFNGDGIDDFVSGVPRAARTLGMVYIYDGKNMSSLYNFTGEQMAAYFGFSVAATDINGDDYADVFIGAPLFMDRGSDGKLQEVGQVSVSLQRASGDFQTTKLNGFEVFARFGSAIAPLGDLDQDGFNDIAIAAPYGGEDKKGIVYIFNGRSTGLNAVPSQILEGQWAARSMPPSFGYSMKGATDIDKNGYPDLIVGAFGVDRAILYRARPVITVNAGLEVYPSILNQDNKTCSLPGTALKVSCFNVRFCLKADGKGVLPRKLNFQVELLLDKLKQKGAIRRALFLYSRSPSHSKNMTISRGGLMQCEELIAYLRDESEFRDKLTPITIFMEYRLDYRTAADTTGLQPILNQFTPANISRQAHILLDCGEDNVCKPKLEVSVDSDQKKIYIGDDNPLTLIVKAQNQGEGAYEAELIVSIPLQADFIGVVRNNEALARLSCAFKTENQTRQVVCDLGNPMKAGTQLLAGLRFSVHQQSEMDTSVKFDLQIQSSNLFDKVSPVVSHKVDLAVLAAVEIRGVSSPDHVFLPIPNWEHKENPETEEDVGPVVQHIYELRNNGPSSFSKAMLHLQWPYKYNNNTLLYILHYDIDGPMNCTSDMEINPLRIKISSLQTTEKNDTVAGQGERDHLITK
T1 sequence (P06756 891-1048 partner limits assumed): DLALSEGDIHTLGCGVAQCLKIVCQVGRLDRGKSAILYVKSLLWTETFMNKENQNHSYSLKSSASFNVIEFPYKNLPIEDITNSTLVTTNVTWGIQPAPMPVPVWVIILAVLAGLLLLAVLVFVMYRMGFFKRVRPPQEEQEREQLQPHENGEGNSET
T1 sequence (P18564 22-788): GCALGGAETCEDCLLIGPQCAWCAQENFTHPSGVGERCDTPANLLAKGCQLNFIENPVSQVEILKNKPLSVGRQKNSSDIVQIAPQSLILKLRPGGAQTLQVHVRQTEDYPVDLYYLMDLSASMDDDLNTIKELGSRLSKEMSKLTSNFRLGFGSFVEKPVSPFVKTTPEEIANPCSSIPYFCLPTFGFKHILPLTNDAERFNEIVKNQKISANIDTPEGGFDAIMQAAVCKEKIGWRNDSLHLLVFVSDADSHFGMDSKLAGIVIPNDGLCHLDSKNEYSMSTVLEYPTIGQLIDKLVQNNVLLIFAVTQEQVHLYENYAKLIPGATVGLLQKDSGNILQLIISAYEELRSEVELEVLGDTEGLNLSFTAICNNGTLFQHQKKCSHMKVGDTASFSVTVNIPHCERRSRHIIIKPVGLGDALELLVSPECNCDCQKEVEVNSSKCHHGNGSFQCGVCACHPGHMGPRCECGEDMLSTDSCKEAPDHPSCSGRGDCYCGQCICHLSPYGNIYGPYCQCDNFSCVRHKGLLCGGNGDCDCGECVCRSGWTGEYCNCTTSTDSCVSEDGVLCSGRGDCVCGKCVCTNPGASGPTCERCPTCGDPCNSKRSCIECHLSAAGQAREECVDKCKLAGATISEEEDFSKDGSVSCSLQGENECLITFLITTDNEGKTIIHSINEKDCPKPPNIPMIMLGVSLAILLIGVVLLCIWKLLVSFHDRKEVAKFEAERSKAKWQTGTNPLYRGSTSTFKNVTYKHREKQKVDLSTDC
Method: To evaluate compound potency for membrane-bound αVβ6 an additional cell-based adhesion assay was established using the HT-29 human colon carcinoma cell line. High surface expression of αVβ6 on HT-29 cells was confirmed by flow cytometry. Conditions were established in which cell adhesion to immobilized human latency associated peptide (LAP) was mediated by the αVβ6, as determined by a panel of integrin-specific, neutralizing monoclonal antibodies. Briefly, cells were incubated with inhibitor in the presence of 200 uM Mn^2+, allowed to adhere to immobilized LAP, washed, and adherent cells are detected by quantifying endogenous alkaline phosphatase using para-nitrophenyl phosphate. An 8-point dose-response curve using either 10-fold or 3-fold dilutions of compound was evaluated by fitting a four-parameter logistic, nonlinear model (using SAS). The compounds evaluated were relatively ineffective at inhibition of αVβ6-mediated cell adhesion. The selective antagonism of the αVβ3 integrin is viewed as desirable in this class of compounds, as αVβ6 may also play a role in normal physiological processes of tissue repair and cellular turnover that routinely occur in the skin and pulmonary tissues.

[2] = molecular target: T2, Human fibrinogen receptor (IIb/IIIa) (Homo sapiens, UniProt P05106+P08514); assay: Purified IIb/IIIa receptor assay (solid phase receptor assay, SPRA); type: binding; conditions: selectivity ratio: IC50 αIIbβ3 (solid phase receptor assay) over IC50 β3
T2 construct: Human fibrinogen receptor (IIb/IIIa) was purified from outdated platelets; from tissue; host or cells: outdated human platelets
T2 sequence (P08514 32-887 limits assumed): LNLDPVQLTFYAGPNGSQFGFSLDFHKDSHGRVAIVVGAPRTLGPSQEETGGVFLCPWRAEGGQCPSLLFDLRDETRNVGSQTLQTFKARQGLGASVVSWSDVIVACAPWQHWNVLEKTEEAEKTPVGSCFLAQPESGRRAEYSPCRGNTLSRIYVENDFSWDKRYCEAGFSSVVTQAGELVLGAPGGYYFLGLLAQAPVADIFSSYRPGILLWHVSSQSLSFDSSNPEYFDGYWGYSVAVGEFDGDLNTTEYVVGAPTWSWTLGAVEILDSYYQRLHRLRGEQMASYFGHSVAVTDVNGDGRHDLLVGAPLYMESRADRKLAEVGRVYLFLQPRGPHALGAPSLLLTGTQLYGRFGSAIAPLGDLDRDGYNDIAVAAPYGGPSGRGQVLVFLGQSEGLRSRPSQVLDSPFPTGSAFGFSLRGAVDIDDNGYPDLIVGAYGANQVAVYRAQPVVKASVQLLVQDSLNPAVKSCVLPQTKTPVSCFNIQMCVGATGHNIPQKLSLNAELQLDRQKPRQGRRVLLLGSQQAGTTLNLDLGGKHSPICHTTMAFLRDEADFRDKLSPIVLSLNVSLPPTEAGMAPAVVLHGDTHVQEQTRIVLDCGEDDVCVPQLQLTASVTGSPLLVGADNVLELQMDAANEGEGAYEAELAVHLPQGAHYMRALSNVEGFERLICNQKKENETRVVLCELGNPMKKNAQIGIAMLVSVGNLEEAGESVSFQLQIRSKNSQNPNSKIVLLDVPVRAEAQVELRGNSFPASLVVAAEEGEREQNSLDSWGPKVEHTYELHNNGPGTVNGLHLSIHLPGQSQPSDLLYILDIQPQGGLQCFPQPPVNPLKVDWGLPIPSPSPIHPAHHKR
T2 sequence (P08514 891-1039 partner limits assumed): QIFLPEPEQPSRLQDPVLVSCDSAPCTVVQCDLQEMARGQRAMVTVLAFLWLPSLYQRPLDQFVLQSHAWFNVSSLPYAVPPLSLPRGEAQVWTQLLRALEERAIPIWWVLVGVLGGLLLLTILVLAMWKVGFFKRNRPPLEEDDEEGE
T2 sequence (P05106 27-788): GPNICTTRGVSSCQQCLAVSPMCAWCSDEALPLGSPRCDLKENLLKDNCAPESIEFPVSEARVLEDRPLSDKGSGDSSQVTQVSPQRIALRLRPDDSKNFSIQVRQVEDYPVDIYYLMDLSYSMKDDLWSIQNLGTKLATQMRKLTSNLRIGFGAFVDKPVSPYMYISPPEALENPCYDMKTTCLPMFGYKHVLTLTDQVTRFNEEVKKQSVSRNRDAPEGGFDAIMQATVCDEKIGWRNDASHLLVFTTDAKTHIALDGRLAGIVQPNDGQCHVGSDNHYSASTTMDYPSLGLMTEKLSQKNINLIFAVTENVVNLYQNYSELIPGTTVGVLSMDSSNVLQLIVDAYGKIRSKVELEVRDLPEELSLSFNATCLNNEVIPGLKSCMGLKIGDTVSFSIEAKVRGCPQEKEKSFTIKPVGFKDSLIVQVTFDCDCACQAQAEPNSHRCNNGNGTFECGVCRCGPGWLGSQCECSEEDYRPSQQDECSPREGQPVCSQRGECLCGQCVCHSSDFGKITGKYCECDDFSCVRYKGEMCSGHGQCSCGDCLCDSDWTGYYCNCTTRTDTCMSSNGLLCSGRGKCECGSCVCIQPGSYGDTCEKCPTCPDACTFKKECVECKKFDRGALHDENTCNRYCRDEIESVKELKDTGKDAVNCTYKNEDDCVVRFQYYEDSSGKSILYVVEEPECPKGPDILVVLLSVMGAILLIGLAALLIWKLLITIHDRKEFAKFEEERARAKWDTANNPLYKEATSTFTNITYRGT
Excerpt: Human fibrinogen receptor (IIb/IIIa) was purified from outdated platelets. (Pytela, R., Pierschbacher, M. D., Argraves, S., Suzuki, S., and Rouslahti, E. “Arginine-Glycine-Aspartic acid adhesion receptors”, Methods in Enzymology 144(1987):475-489.) Human vitronectin was purified from fresh frozen plasma as described in Yatohgo, T., Izumi, M., Kashiwagi, H., and Hayashi, M., “Novel purification of vitronectin from human plasma by heparin affinity chromatography,” Cell Structure and Function 13(1988):281-292. Biotinylated human vitronectin was prepared by coupling NHS-biotin from Pierce Chemical Company (Rockford, IL) to purified vitronectin as previously described. (Charo, I. F., Nannizzi, L., Phillips, D. R., Hsu, M. A., Scarborough, R. M., “Inhibition of fibrinogen binding to GP IIb/IIIa by a GP IIIa peptide”, J. Biol. Chem. 266(3)(1991): 1415-1421.) Assay buffer, OPD substrate tablets, and RIA grade BSA were obtained from Sigma (St. Louis, Mo.). Anti-biotin antibody was obtained from Sigma (St. Louis, Mo.). Nalge Nunc-Immuno microtiter plates were obtained from (Rochester, N.Y.). ADP reagent was obtained from Sigma (St. Louis, Mo.).
This assay is essentially the same reported in Niiya, K., Hodson, E., Bader, R., Byers-Ward, V. Koziol, J. A., Plow, E. F. and Ruggeri, Z. M., “Increased surface expression of the membrane glycoprotein IIb/IIIa complex induced by platelet activation: Relationships to the binding of fibrinogen and platelet aggregation”, Blood 70(1987):475-483. The purified human fibrinogen receptor (IIb/IIIa) was diluted from stock solutions to 1.0 μg/mL in Tris-buffered saline containing 1.0 mM Ca^++, Mg^++, and Mn^++, pH 7.4 (TBS^+++). The diluted receptor was immediately transferred to Nalge Nunc-Immuno microtiter plates at 100 μL/well (100 ng receptor/well). The plates were sealed and incubated overnight at 4° C. to allow the receptors to bind to the wells. All remaining steps were at room temperature. The assay plates were emptied and 200 μL of 1% RIA grade BSA in TBS^+++ (TBS^+++/BSA) were added to block exposed plastic surfaces. Following a 2 hour incubation, the assay plates were washed with TBS^+++ using a 96 well plate washer. Logarithmic serial dilution of the test compound and controls were made starting at a stock concentration of […] and using 2 nM biotinylated vitronectin in TBS^+++/BSA as the diluent. This premixing of labeled ligand with test (or control) ligand, and subsequent transfer of 50 μL aliquots to the assay plate was carried out with a CETUS Propette robot; the final concentration of the labeled ligand was 1 nM and the highest concentration of test compound was 1.0×10^−4 M. The competition occurred for two hours after which all wells were washed with a plate washer as before. Affinity purified horseradish peroxidase labeled goat anti-biotin antibody was diluted 1:2000 in TBS^+++/BSA and 125 μL were added to each well. After 45 minutes, the plates were washed and incubated with […] substrate in 100 mM/L citrate buffer, pH 5.0. The plate was read with a microtiter plate reader at a wavelength of 450 nm and when the maximum-binding control wells reached an absorbance of about 1.0, the final A450 were recorded for analysis. The data were analyzed using a macro written for use with the EXCELJ spreadsheet program. The mean, standard deviation, and %CV were determined for duplicate concentrations. The mean A450 values were normalized to the mean of four maximum-binding controls (no competitor added)(B-MAX). The normalized values were subjected to a four parameter curve fit algorithm, [Robard et al., Int.

[3] = molecular target: T3, αVβ3 integrin (293-β3 cells) (Homo sapiens, UniProt P05106+P06756); assay: 293-β3 cell adhesion assay (adhesion to immobilized vitronectin); type: cell-based; conditions: 200 uM Mn2+, read-out: 293-β3 (IC50 <10 μM)
T3 construct: expressed in transfected cells; host or cells: 293 human embryonic kidney cells (293-β3)
T3 sequence (P06756 31-889 limits assumed): as the sequence (P06756 31-889 limits assumed) above
T3 sequence (P06756 891-1048 partner limits assumed): as the sequence (P06756 891-1048 partner limits assumed) above
T3 sequence (P05106 27-788): as the sequence (P05106 27-788) above
Excerpt: While the β3 subunit of αVβ3 is only known to complex with αV or αIIb, the αV subunit complexes with multiple β subunits. The three αV integrins most homologous with αVβ3 are αVβ1, αVβ5 and αVβ6, with 43%, 56% and 47% amino acid identity in the β subunits, respectively. To evaluate the selectivity of compounds between the integrins αVβ3 and αVβ6, cell-based assays were established using the 293 human embryonic kidney cell line. 293 cells express αVβ1, but little to no detectable αVβ3 or αVβ6. cDNAs for β3 and β6 were transfected separately into 293 cells to generate 293-β3 and 293-β6 cells, respectively. High surface expression of αVβ3 and αVβ6 was confirmed by flow cytometry. Conditions were established for each cell line in which cell adhesion to immobilized human vitronectin was mediated by the appropriate integrin, as determined by a panel of integrin-specific, neutralizing monoclonal antibodies. Briefly, cells were incubated with inhibitor in the presence of 200 uM Mn^2+, allowed to adhere to immobilized vitronectin, washed, and adherent cells are detected endogenous alkaline phosphatase and para-nitrophenyl phosphate. An 8-point dose-response curve using either 10-fold or 3-fold dilutions of compound was evaluated by fitting a four-parameter logistic, nonlinear model (using SAS).

Structure (SMILES) | HT-29 β-6 Selectivity* (β6/β3) [1] | SPRA AIIbB3 Selectivity* IIbIIIa/β3 [2] | pIC50 [3]
O=C(O)C(F)(F)F.O=C(O)CC1(Cc2nc(CCCCNc3ccccn3)no2)CCCC1 [Example 4, [1-({3-[4-(pyridin-2-ylamino)butyl]-1,2,4-oxadiazol-5-yl}methyl)cyclopentyl]-acetic acid] | +++ (Selectivity Ratio >100 +++) | ++ (Selectivity Ratio of 10-100 ++) | > 5.00
CC(C)(CC(=O)O)Cc1nc(CCCc2ccc3c(n2)NCCC3)no1.O=C(O)C(F)(F)F [Example 12, 3,3-dimethyl-4-{3-[3-(5,6,7,8-tetrahydro-1,8-naphthyridin-2-yl)propyl]-1,2,4-oxadiazol-5-yl}butanoic acid] | +++ (Selectivity Ratio >100 +++) | +++ (Selectivity Ratio >100 +++) | > 5.00
O=C(O)C(F)(F)F.O=C(O)CC(Cc1nc(CCCc2ccc3c(n2)NCCC3)no1)c1ccc2c(c1)OCO2 (stereo not drawn) [Example 16, 3-(1,3-benzodioxol-5-yl)-4-{3-[3-(5,6,7,8-tetrahydro-1,8-naphthyridin-2-yl)propyl]-1,2,4-oxadiazol-5-yl}butanoic acid] | +++ (Selectivity Ratio >100 +++) | +++ (Selectivity Ratio >100 +++) | > 5.00
O=C(O)CC(Cc1nc(CCCCNc2ccccn2)no1)c1ccc2c(c1)OCO2 (stereo not drawn) [Example 17, 3-(1,3-benzodioxol-5-yl)-4-{3-[4-(pyridin-2-ylamino)butyl]-1,2,4-oxadiazol-5-yl}butanoic acid] | +++ (Selectivity Ratio >100 +++) | ++ (Selectivity Ratio of 10-100 ++) | > 5.00
O=C(O)C(F)(F)F.O=C(O)CC(Cc1nc(CCCc2ccc3c(n2)NCCC3)no1)c1cnc2ccccc2c1 (stereo not drawn) [Example 18, 3-quinolin-3-yl-4-{3-[3-(5,6,7,8-tetrahydro-1,8-naphthyridin-2-yl)propyl]-1,2,4-oxadiazol-5-yl}butanoic acid] | +++ (Selectivity Ratio >100 +++) | +++ (Selectivity Ratio >100 +++) | > 5.00
O=C(O)C(F)(F)F.O=C(O)CC(Cc1nc(CCCCNc2ccccn2)no1)c1cnc2ccccc2c1 (stereo not drawn) [Example 19, 3-quinolin-3-yl-4-{3-[4-(pyridin-2-ylamino)butyl]-1,2,4-oxadiazol-5-yl}-butanoic acid] | +++ (Selectivity Ratio >100 +++) | ++ (Selectivity Ratio of 10-100 ++) | > 5.00
COc1cccc(C(CC(=O)O)Cc2nc(CCCc3ccc4c(n3)NCCC4)no2)c1.O=C(O)C(F)(F)F (stereo not drawn) [Example 20, 3-(3-methoxyphenyl)-4-{3-[3-(5,6,7,8-tetrahydro-1,8-naphthyridin-2-yl)propyl]-1,2,4-oxadiazol-5-yl}butanoic acid] | +++ (Selectivity Ratio >100 +++) | +++ (Selectivity Ratio >100 +++) | > 5.00
COc1cccc(C(CC(=O)O)Cc2nc(CCCCNc3ccccn3)no2)c1.O=C(O)C(F)(F)F (stereo not drawn) [Example 21, 3-(3-methoxyphenyl)-4-{3-[4-(pyridin-2-ylamino)butyl]-1,2,4-oxadiazol-5-yl}butanoic acid] | +++ (Selectivity Ratio >100 +++) | ++ (Selectivity Ratio of 10-100 ++) | > 5.00
COc1ccc(C(CC(=O)O)Cc2nc(CCCc3ccc4c(n3)NCCC4)no2)cc1.O=C(O)C(F)(F)F (stereo not drawn) [Example 22, 3-(4-methoxyphenyl)-4-{3-[3-(5,6,7,8-tetrahydro-1,8-naphthyridin-2-yl)propyl]-1,2,4-oxadiazol-5-yl}butanoic acid] | +++ (Selectivity Ratio >100 +++) | +++ (Selectivity Ratio >100 +++) | > 5.00
COc1ccc(C(CC(=O)O)Cc2nc(CCCCNc3ccccn3)no2)cc1.O=C(O)C(F)(F)F (stereo not drawn) [Example 23, 3-(4-methoxyphenyl)-4-{3-[4-(pyridin-2-ylamino)butyl]-1,2,4-oxadiazol-5-yl}butanoic acid] | +++ (Selectivity Ratio >100 +++) | ++ (Selectivity Ratio of 10-100 ++) | > 5.00
O=C(O)C(F)(F)F.O=C(O)CC(Cc1nc(CCCc2ccc3c(n2)NCCC3)no1)c1cccc(F)c1 (stereo not drawn) [Example 24, 3-(3-fluorophenyl)-4-{3-[3-(5,6,7,8-tetrahydro-1,8-naphthyridin-2-yl)propyl]-1,2,4-oxadiazol-5-yl}butanoic acid] | +++ (Selectivity Ratio >100 +++) | +++ (Selectivity Ratio >100 +++) | > 5.00
O=C(O)C(F)(F)F.O=C(O)CC(Cc1nc(CCCCNc2ccccn2)no1)c1cccc(F)c1 (stereo not drawn) [Example 25, 3-(3-fluorophenyl)-4-{3-[4-(pyridin-2-ylamino)butyl]-1,2,4-oxadiazol-5-yl}butanoic acid trifluoroacetate] | +++ (Selectivity Ratio >100 +++) | ++ (Selectivity Ratio of 10-100 ++) | > 5.00
O=C(O)C(F)(F)F.O=C(O)CC(Cc1nc(CCCc2ccc3c(n2)NCCC3)no1)c1ccc(F)cc1 (stereo not drawn) [Example 26, 3-(4-fluorophenyl)-4-{3-[3-(5,6,7,8-tetrahydro-1,8-naphthyridin-2-yl)propyl]-1,2,4-oxadiazol-5-yl}butanoic acid trifluoroacetate] | +++ (Selectivity Ratio >100 +++) | +++ (Selectivity Ratio >100 +++) | > 5.00
